# Measurements: US8993637B2 (priority 2013, dated 2015)
# What was measured:
# RAW 264.7 macrophages = experiment: ROS production assay in LPS-activated macrophages; assay type: cell-based, murine; conditions: Citral 10 μg/ml; 30 min before and during LPS (1 μg/ml) stimulation, 0-4 h
# Method: ROS production was measured as the relative fluorescence intensity. […] The data are expressed as the mean±SD for three separate experiments. *p<0.05, **p<0.01 compared to the LPS-treated group. RAW-Blue™ cells (Murine macrophages RAW264.7 stably transfected with the NF-κB reporter gene) purchased from InvivoGen (San Diego, Calif.). LPS (from Escherichia coli 0111:B4) and mouse antibodies against phospho-ERK1/2, phospho-JNK1/2, and phospho-p38 (all from Sigma, St. Louis, Mo.). Rabbit antibodies against mouse ERK1, JNK1, and p38, and HRP-labeled second antibodies were purchased from Santa Cruz Biotechnology, and IL-1β, IL-6, and TNF-α ELISA kits from R&D Systems. ROS production assay, NO production assay, NF-κB reporter assay, ELISA, and Western blotting were performed as described previously.
# [1] = tested on: renal apoptosis; caspase-3, caspase-8, caspase-9, Bax/Bcl-2; experiment: Mouse FSGS model: renal apoptosis (TUNEL), caspases, Bax/Bcl-2 ratio; assay type: in vivo
# Method: A progressive type of mouse FSGS model was used, particularly characterized by EPHLs, a key histopathology index of progression of FSGS, peri-glomerular inflammation, and progressive glomerular hyalinosis/sclerosis. The FSGS model was induced in 8-week-old male BALB/c mice (National Laboratory Animal Center, Taipei, Taiwan) by intravenous injection of a single dose of adriamycin (0.10 mg/10 g body weight) (Pfizer, New York, N.Y.) as described previously. […] Age- and sex-matched BALB/c mice were used as normal controls. Urine samples were collected in metabolic cages on days 3, 7, 14, 21, and 28. Renal cortical tissues and blood samples were collected when the mice were sacrificed and stored appropriately for further analysis. The concentration of urine protein was determined using BCA kits (Pierce, Rockford, Ill.) as described previously and normalized to urine creatinine (Cr) levels measured using kits (Wako Pure Chemical Industries, Osaka, Japan), as described previously. Serum levels of blood urea nitrogen (BUN) and Cr were determined using BUN kits and Cr kits (both from Fuji Dry-Chem Slide, Fuji Film Medical, Tokyo, Japan), as described previously.
# Renal tissues were formalin-fixed, embedded in paraffin, and sections (4 μm) prepared and stained with hematoxylin and eosin (H&E) for renal histopathology as described previously or TUNEL stained for apoptosis as described previously. Renal pathology was examined and renal lesions scored as described previously. For EPHLs and sclerosis, at least 50 glomeruli in sections were examined for each mouse. To detect apoptosis in renal tissues, TUNEL staining was performed using an in situ apoptosis detection kit (Chemicon, Temecula, Calif.) according to the manufacturer's instructions. For immunohistochemistry, methyl Carnoy solution-fixed and paraffin-embedded renal sections were prepared and incubated with goat antibodies against mouse collagen IV (Col-IV) (Southern Biotech, AL) or rabbit antibodies against phosphorylated mouse NF-κB p65 (Cell Signaling Technology, MA), F4/80 (Serotec, Raleigh, N.C.), or CD3 (Serotec), then with horseradish-conjugated rabbit anti-goat IgG antibodies or swine anti-rabbit IgG antibodies (both from Dako, Carpinteria, Calif.). Quantitative image analysis software (Pax-it; Paxcam, VIIIa Park, Ill.) was used to score Col-IV staining and the number of phosphorylated NF-κB p65-, CD3-, F4/80-, or TUNEL-positive cells as described previously.
# Cytoplasmic and nuclear proteins from renal tissues were prepared using a kit (Active Motif, Tokyo, Japan) according to the manufacturer's instructions and target proteins detected by immunoblotting using goat antibodies against mouse Nrf2 or p47^phox, (Santa Cruz Biotechnology, Santa Cruz, Calif.) or rabbit antibodies against mouse NQO1 (Abcam), caspase-3, caspase-8, or caspase-9 (all from Cell Signaling Technology, MA) or Bcl2 or Bax (both from Santa Cruz Biotechnology), then with horseradish-conjugated rabbit anti-goat IgG antibodies or goat-anti-rabbit IgG antibodies (both from Santa Cruz Biotechnology) as described previously. Anti-β-actin antibody (Santa Cruz Biotechnology) was used as internal controls for the nuclear and cytosolic target proteins, respectively. Renal HO-1 levels were measured using a commercial ELISA kit (R&D Systems, Minneapolis, Minn.) according to the manufacturer's instructions.
smiles,measurement,setting,value
"CC(C)=CCCC(C)=CC=O (racemic) [Citral, 3,7-dimethyl-2,6-octadienal]",LPS-induced increase in ROS production,RAW 264.7 macrophages,reduced
same,mature form (p18 fragment) of renal caspase-8,"[1]; FSGS+vehicle vs FSGS+Citral vs normal control mice, data not shown",no detectable difference
same,renal apoptosis (TUNEL) in the glomerulus,"[1]; day 28, p<0.005",significantly inhibited
same,renal apoptosis (TUNEL) in the renal tubule,[1]; days 14 and 28,significantly inhibited
same,"mature form (p17 fragment) of caspase-3, renal levels","[1]; days 14 and 28, p<0.01",significantly inhibited
same,"mature form (p37 fragment) of caspase-9, renal levels","[1]; days 14 and 28, p<0.05",suppressed
